Experiment [1] addresses T1, human CYP11B2 (Homo sapiens, UniProt P19099).
T1 construct: expressed in transfected cells
T1 sequence (P19099 25-503): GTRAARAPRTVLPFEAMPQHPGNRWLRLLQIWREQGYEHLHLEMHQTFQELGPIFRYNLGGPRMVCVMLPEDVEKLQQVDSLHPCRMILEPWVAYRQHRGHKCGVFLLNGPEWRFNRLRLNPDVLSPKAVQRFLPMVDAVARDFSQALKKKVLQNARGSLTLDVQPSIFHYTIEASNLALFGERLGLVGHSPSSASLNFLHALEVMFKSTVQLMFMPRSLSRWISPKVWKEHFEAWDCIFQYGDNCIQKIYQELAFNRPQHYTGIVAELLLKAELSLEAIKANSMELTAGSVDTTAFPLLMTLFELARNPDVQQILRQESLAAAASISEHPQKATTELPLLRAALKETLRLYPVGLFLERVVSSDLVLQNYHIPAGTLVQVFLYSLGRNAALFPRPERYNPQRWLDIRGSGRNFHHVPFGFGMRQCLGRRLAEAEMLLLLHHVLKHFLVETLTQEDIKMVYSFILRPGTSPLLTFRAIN
In words: G-402 cellular enzyme assay, human CYP11B2 (aldosterone release, HTRF). It is filed as cell-based. The settings on record: G-402 cells, 1 μM Deoxycorticosterone. The text has this: (§1) Herein we identified the use of the G-402 cell line as a host cell to ectopically express (transiently or stably) enzymes of the CYP11 family. Specifically we developed stable G-402 cells expressing ectopically human CYP11B1, human CYP11B2, human CYP11A1, cynmolgus CYP11B1 or cynomolgus CYP11B2 enzyme activity. Importantly the identified cell line G-402 expresses co-factors (adrenodoxin and adrenodoxin reductase) important for the activity of the CYP11 family and no relevant enzyme activity of the CYP11 family (in comparison to H295R cells) was detected in these cells. Therefore the G-402 cell line is uniquely suited as a host cell for the ectopic expression of enzymes from the CYP11 family.
(§2) G-402 cells can be obtained from ATCC(CRL-1440) and were originally derived from a renal leiomyoblastoma.
(§3) The expression plasmids contain the ORF for either human/cyno CYP11B1 or CYP11B2 under the control of a suitable promoter (CMV-promoter) and a suitable resistance marker (neomycin). Using standard techniques the expression plasmid is transfected into G-402 cells and these cells are then selected for expressing the given resistance markers. Individual cell-clones are then selected and assessed for displaying the desired enzymatic activity using 11-Deoxycorticosterone (Cyp11B2) or 11-Deoxycortisol (Cyp11B1) as a substrate.
(§4) G-402 cells expressing CYP11 constructs were established as described above and maintained in McCoy's 5a Medium Modified, ATCC Catalog No. 30-2007 containing 10% FCS and 400 μg/ml G418 (Geneticin) at 37° C. under an atmosphere of 5% CO2/95% air.
(§5) Cellular enzyme assays were performed in DMEM/F12 medium containing 2.5% charcoal treated FCS and appropriate concentration of substrate (0.3-10 uM 11-Deoxycorticosterone, 11-Deoxycortisol or Corticosterone). For assaying enzymatic activity, cells were plated onto 96 well plates and incubated for 16 h. An aliquot of the supernatant is then transferred and analyzed for the concentration of the expected product (Aldosterone for CYP11B2; Cortisol for CYP11B1). The concentrations of these steroids can be determined using HTRF assays from CisBio analyzing either Aldosterone or Cortisol.
(§6) Inhibition of the release of produced steroids can be used as a measure of the respective enzyme inhibition by test compounds added during the cellular enzyme assay. The dose dependent inhibition of enzymatic activity by a compound is calculated by means of plotting added inhibitor concentrations (x-axes) vs. measured steroid/product level (y-axes). The inhibition is then calculated by fitting the following 4-parameter sigmoidal function (Morgan-Mercer-Flodin (MMF) model) to the raw data points using the least squares method:
(§7) [formula] wherein, A is the maximum y value, B is the EC50 factor determined using XLFit, C is the minimum y value and D is the slope value.
(§8) EC50 values for compounds claimed herein were tested with the G402-based assay system described. Cyp11B2 enzyme activity was tested in presence of 1 μM Deoxycorticosterone and variable amounts of inhibitors; Cyp11B1 enzyme activity was tested in presence of 1 μM Deoxycortisol and variable amounts of inhibitors.
A general note: Time-resolved FRET reads energy transfer from a long-lived donor to a nearby acceptor.

Experiment [2] deals with T2, human CYP11B1 (Homo sapiens, UniProt P15538).
T2 construct: expressed in transfected cells
T2 sequence (P15538 25-503): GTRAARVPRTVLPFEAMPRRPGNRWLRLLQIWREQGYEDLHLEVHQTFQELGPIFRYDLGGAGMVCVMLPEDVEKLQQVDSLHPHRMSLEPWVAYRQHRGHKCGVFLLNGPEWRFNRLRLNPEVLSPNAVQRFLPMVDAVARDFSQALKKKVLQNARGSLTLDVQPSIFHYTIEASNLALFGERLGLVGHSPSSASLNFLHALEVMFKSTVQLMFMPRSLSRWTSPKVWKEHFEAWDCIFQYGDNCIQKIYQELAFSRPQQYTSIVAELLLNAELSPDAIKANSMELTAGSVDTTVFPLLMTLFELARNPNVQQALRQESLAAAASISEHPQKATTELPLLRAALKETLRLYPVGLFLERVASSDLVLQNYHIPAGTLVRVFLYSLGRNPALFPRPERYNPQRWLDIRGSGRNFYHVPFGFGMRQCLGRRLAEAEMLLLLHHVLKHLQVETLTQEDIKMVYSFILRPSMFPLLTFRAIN
The experiment can be described thus: G-402 cellular enzyme assay, human CYP11B1 (cortisol release, HTRF). It is filed as cell-based. Particulars: G-402 cells, 1 μM Deoxycortisol.
Excerpt: as §1, §2, §3, §4, §5, §6, §7, §8

Some results are limits rather than exact numbers.

As for `Cn1cc(Cc2cncc(N3CCc4cc(Cl)ccc4C3=O)c2)cn1` [Example 209, 6-Chloro-2-[5-(1-methyl-1H-pyrazol-4-ylmethyl)-pyridin-3-yl]-3,4-dihydro-2H-isoquinolin-1-one], the EC50 in experiment [1] is 0.9 nM; in experiment [2], 14.7 nM.
Take `O=C1c2ccc(Cl)cc2CCN1c1cncc(CN2CCC[C@H]2CO)c1` [Example 149, 6-Chloro-2-[5-((S)-2-hydroxymethyl-pyrrolidin-1-ylmethyl)-pyridin-3-yl]-3,4-dihydro-2H-isuquinolin-1-one]: the EC50 in experiment [1] amounted to 126 nM; in experiment [2], 1920 nM.
For `CN1CCCC1CCOCc1cncc(N2CCc3cc(Cl)ccc3C2=O)c1` (centres unmarked) [Example 196, 6-Chloro-2-{5-[2-(1-methyl-pyrrolidin-2-yl)-ethoxymethyl]-pyridin-3-yl}-3,4-dihydro-2H-isoquinolin-1-one] the same measures were 178 nM and 1030 nM.
For `CC1(C)c2cc(Cl)ccc2C(=O)N1c1cncc(OC2CCN(S(C)(=O)=O)C2)c1` (centres unmarked) [Example 445, 5-Chloro-2-[5-(1-methanesulfonyl-pyrrolidin-3-yloxy) -pyridin-3-yl]-3,3-dimethyl-2,3-dihydro-isoindol-1-one] the same measures were 7.4 nM and 914 nM.
Taken in the same sequence, the figures for `Cc1nccn1Cc1cncc(N2C(=O)c3ccc(Cl)cc3C2(C)C)c1` [Example 134, 5-Chloro-3,3-dimethyl-2-[5-(2-methyl-imidazol-1-ylmethyl)-pyridin-3-yl]-2,3-dihydro-isoindol-1-one] were 18.6 nM and 424 nM.
For `CC(C)S(=O)(=O)NCc1cncc(N2CCc3cc(Cl)ccc3C2=O)c1` [Example 145, Propane-2-sulfonic acid [5-(6-chloro-1-oxo-3,4-dihydro-1H-isoquinolin-2-yl)-pyridin-3-ylmethyl]-amide], the results for the EC50 in experiment [1] and in experiment [2] were 1500 nM and 1900 nM, respectively.
For `Cc1cnn(C)c1-c1cncc(N2CCc3cc(Cl)ccc3C2=O)c1` [Example 245, 6-Chloro-2-[5-(2,4-dimethyl-2H-pyrazol-3-yl)-pyridin-3-yl]-3,4-dihydro-2H-isoquinolin 1-one] the same measures were 1.1 nM and 25.7 nM.
Taken in the same sequence, the figures for `CC(=O)NC1CCCc2c1cncc2N1Cc2cc(Cl)ccc2C1=O` (single isomer, unassigned) [Example 323, N-[(R or S)-4-(5-Chloro-1-oxo-1,3-dihydro-isoindol-2-yl)-5,6,7,8-tetrahydro-isoquinolin-8-yl]-acetamide] were 44.2 nM and 2350 nM.
For `O=C1c2ccc(Cl)cc2CCN1c1cncc(CN2CCCC(O)C2)c1` (centres unmarked) [Example 144, 6-Chloro-2-[5-(3-hydroxy-piperidin-1-ylmethyl)-pyridin-3-yl]-3,4-dihydro-2H-isoquinolin-1-one] the same measures were 23.7 nM and 140 nM.
As for `O=C1c2ccc(Cl)cc2CCN1c1cncc(COCC(F)(F)F)c1` [Example 202, 6-Chloro-2-[5-(2,2,2-trifluoro-ethoxymethyl)-pyridin-3-yl]-3,4-dihydro-2H-isoquinolin-1-one], the EC50 in experiment [1] was 65.3 nM; in experiment [2], 473 nM.
Taken in the same sequence, the figures for `CC(O)(c1ccccc1)c1cncc(N2CCc3cc(Cl)ccc3C2=O)c1` (centres unmarked) [Example 35, 6-Chloro-2-[5-(1-hydroxy-1-phenyl-ethyl)-pyridin-3-yl]-3,4-dihydro-2H-isoquinolin-1-one] were 18.8 nM and 146 nM.
On to `O=C(Nc1cncc(N2CCc3cc(Cl)ccc3C2=O)c1)C1CC1` [Example 248, Cyclopropanecarboxylic acid [5-(6-chloro-1-oxo-3,4-dihydro-1H-isoquinolin-2-yl)-pyridin-3-yl]-amide], for which the EC50 in experiment [2] is 2650 nM.
Turning to `CN1CCN(Cc2ccncc2N2CCc3cc(Cl)ccc3C2=O)CC1` [Example 280, 6-Chloro-2-[4-(4-methyl-piperazin-1-ylmethyl)-pyridin-3-yl]-3,4-dihydro-2H-isoquinolin-1-one], the EC50 in experiment [1] was determined as 1800 nM.
In the case of `CCC(=O)N[C@@H]1CCc2c1cncc2N1C(=O)c2ccc(Cl)cc2[C@@H]1C` (single isomer, unassigned) [Example 375, N-[(R or S)-4-((S or R)-5-Chloro-3-methyl-1-oxo-1,3-dihydro-isoindol-2-yl)-6,7-dihydro-5H-[2]pyrindin-7-yl]-propionamide], the response in experiment [1] was half-maximal at 5620 nM (EC50).
In turn, `CC1(C)CN(c2cccnc2)C(=O)c2ccc(Cl)cc21` [Example 102, 6-Chloro-4,4-dimethyl-2-pyridin-3-yl-3,4-dihydro-2H-isoquinolin-1-one] returned an EC50 in experiment [1] of 1540 nM.
The same measure, in the same setting: the figure for `CCS(=O)(=O)NC1CCc2c1cncc2N1Cc2cc(Cl)ccc2C1=O` (single isomer, unassigned) [Example 337, Ethanesulfonic acid [(S or R)-4-(5-chloro-1-oxo-1,3-dihydro-isoindol-2-yl)-6,7-dihydro-5H-[2]pyrindin-7-yl]-amide] is 24300 nM; for `O=C1c2ccc(Cl)cc2CCN1c1cncc(N2C(=O)CC[C@H]2CO)c1` [Example 50, 6-Chloro-2-[5-((S)-2-hydroxymethyl-5-oxo-pyrrolidin-1-yl)-pyridin-3-yl]-3,4-dihydro-2H-isoquinolin-1-one] it is 1500 nM.
Same read-out and setting: the figure for `CC(=O)N[C@H]1CCCc2c1cncc2N1C(=O)c2ccc(Cl)cc2[C@@H]1C1CC1` (single isomer, unassigned) [Example 371, N-[(S or R)-4-((S or R)-5-Chloro-3-cyclopropyl-1-oxo-1,3-dihydro-isoindol-2-yl)-5,6,7,8-tetrahydro-isoquinolin-8-yl]-acetamide] is 4260 nM; for `CC(=O)N[C@@H]1CCCc2c1cncc2N1C(=O)c2ccc(Cl)cc2[C@@H]1C1CC1` (single isomer, unassigned) [Example 374, N-[(R or S)-4-((S or R)-5-Chloro-3-cyclopropyl-1-oxo-1,3-dihydro-isoindol-2-yl)-5,6,7,8-tetrahydro-isoquinolin-8-yl]-acetamide] it is 354 nM.
Still for that read-out and setting: the figure for `CC(C)(Nc1cncc(N2CCc3cc(Cl)ccc3C2=O)c1)C(=O)O` [Example 227, 2-[5-(6-Chloro-1-oxo-3,4-dihydro-1H-isoquinolin-2-yl)-pyridin-3-ylamino]-2-methyl-propionic acid] is 4210 nM; for `CC(=O)NC1CCc2c1cncc2N1Cc2cc(Cl)ccc2C1=O` (single isomer, unassigned; (-)) [Example 318, (−)-N—[(S or R)-4-(5-Chloro-1-oxo-1,3-dihydro-isoindol-2-yl)-6,7-dihydro-5H-[2]pyrindin-7-yl]-acetamide] it is greater than 30000 nM.

The EC50 is the concentration giving half of the maximal effect. A high value points to lower potency in that assay.
